Data reported in patent EP4631940A1, “COMPOUND TARGETING PAN-KRAS PROTEIN DEGRADATION AGENT AND USE THEREOF” (Betta Pharmaceuticals Co., Ltd., priority 2022, dated 2024).

How the values were obtained:
[1] = test system: AGS; assay: Cell proliferation experiment (CellTiter-Glo); format: cell-based; conditions: Homo sapiens, AGS, 96 h, read-out: IC50(nM) AGS
[2] = test system: SW620; assay: Cell proliferation experiment (CellTiter-Glo); format: cell-based; conditions: Homo sapiens, SW-620, 96 h, read-out: IC50(nM) SW620
[3] = test system: H358; assay: Cell proliferation experiment (CellTiter-Glo); format: cell-based; conditions: Homo sapiens, NCI-H358; H358, KRAS mutation type G12C; 96 h incubation
[4] = PK study in Balbc mice (whole blood); format: in vivo; conditions: Female Balbc mice, IV 1 mg/kg
Description: Example 7 PK Study of Compound 2 in Balbc Mice
Compound 2 was mixed with the vehicle (10% DMSO / 5% Solutol HS 15 / 85% saline), vortexed, and sonicated to prepare a clear solution at 0.2 mg/mL. Female Balbc mice aged 6 to 7 weeks (non-fasted) were intravenously administered Compound 2. Whole blood was collected at specified time points. Drug concentration was analyzed by LC-MS/MS, and pharmacokinetic parameters were calculated using Phoenix WinNonlin software (Pharsight Corporation, USA). Table 10 Mouse PK Data for Intravenous Compound 2 Monotherapy

[5] = target: T1, KRAS G12D (Homo sapiens, UniProt P01116, G12D); conditions: AGS cell line, In Cell Western Blotting, KRAS^G12D vs GAPDH
[6] = in vitro; conditions: human, microsomes
[7] = in vitro; conditions: rat, microsomes
[8] = in vitro; conditions: mouse, microsomes
[9] = target: T1, KRAS G12D; assay: cell-based; conditions: AGS

T1 sequence (P01116 1-188 isoform P01116-2 G12D): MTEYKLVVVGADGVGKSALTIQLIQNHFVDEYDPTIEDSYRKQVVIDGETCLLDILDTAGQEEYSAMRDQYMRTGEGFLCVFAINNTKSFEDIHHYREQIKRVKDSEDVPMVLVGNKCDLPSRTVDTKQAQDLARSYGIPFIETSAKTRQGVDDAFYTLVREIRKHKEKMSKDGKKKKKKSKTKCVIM

With `CCc1c(F)ccc2cc(O)cc(-c3ncc4c(N5CCCC(C)(O)C5)nc(OC[C@]56CCCN5[C@@H](COC(=O)N5CCC7(CC5)CC(C(=O)N[C@H](C(=O)N5C[C@H](O)C[C@H]5C(=O)N[C@@H](C)c5ccc(-c8scnc8C)cc5)C(C)(C)C)C7)CC6)nc4c3F)c12` (stereo partly drawn) [Compound 2, ((3R,7aR)-7a-(((7-(8-ethyl-7-fluoro-3-hydroxynaphthalen-1-yl)-8-fluoro-4-(3-hydroxy-3-methylpiperidin-1-yl)pyrido[4,3-d]pyrimidin-2-yl)oxy)methyl)hexahydro-1H-pyrrolizin-3-yl)methyl 2-(((S)-1-((2S,4R)-4-hydroxy-2-(((S)-1-(4-(4-methylthiazol-5-yl)phenyl)ethyl)carbamoyl)pyrrolidin-1-yl)-3,3-dimethyl-1-oxobutan-2-yl)carbamoyl)-7-azaspiro[3.5]nonane-7-carboxylate] the IC50 [1] was 44 nM, the IC50 [2] was 501 nM and the IC50 [3] was 143 nM. For the same molecule, the “Cl_obs” value [4] was 3.77 mL/min/kg, the “Vss_obs” value [4] was 0.586 L/kg and the AUC(0-t) ([4]; mouse) was 4380 ng·h/mL. The C0 ([4]; mouse) was 8790 ng/mL, the half-life ([4]; mouse) was 6.49 h and the DC50 [5] was 316 nM. The “The in vitro intrinsic clearance in liver microsomes (CLint, in vitro, µL/min/mg protein) Dog” value was 0.0 µL/min/mg protein, the microsomal CLint [6] was 31 µL/min/mg and the microsomal CLint [7] was 11.6 µL/min/mg. It also gave a microsomal CLint [8] of 16.6 µL/min/mg and a Dmax [9] of 95%.
